# Non-standard residues stand in square brackets, D forms with d. No end group written: not given here. Cit = NC(=O)NCCC[C@H](N)C(=O)O
# Tested on: apoE−/− mice
# Experiment: Atherosclerosis in apoE−/− mice on high-fat western diet, whole aorta Oil-Red O staining
# Assay type: in vivo, mouse
# Conditions: IP 30 mg/kg at 48 hour intervals for 6 weeks
# Procedure: Male apoE^−/− mice at 8 weeks of age were fed a high-fat western diet for 14 weeks. Mice were subsequently randomized to either a control group to receive IP injection of vehicle alone or lipid-free peptide (30 mg/kg) at 48 hour intervals for 6 weeks. […] The extent of whole aorta covered with fatty lesions is shown, determined by Oil-Red O staining. Values are means±SD, n=10 mice per group.
# CS6253, another synthesis batch of T5237-4, was administered IP at 10 mg/kg for 10 weeks showing again reduction of substantial atherosclerosis in apoE^−/− mice (FIG. 36). Male apoE^−/− mice at 8 weeks of age were fed a high-fat western diet for 14 weeks. Mice were subsequently randomized to either a control group to receive IP injection of vehicle alone or lipid-free CS6253 (10 mg/kg) at 48 hour intervals for 10 weeks while the mice remained on high-fat western diet. The extent of whole aorta covered with fatty lesions is shown, determined by Oil-Red O staining. Values are means±SD, n=10 mice per group.
# CS6253 administered SC also reduce substantial atherosclerosis in apoE KO mice. Male apoE−/− mice at 8 weeks of age were fed a high-fat western diet for 14 weeks (FIG. 37). One group was terminated before treatment start as baseline control. Mice were subsequently randomized to one of 3 arms to receive subcutaneous (SC) injection alternate days for 6 weeks; vehicle alone, CS6253 30 mg/kg or CS6253 60 mg/kg. During the first 4 treatment weeks the mice remained on high-fat western diet while during the last two weeks of treatment they were switched to chow diet. The extent of whole aorta covered with fatty lesions is shown, determined by Oil-Red O staining. Values are means±SD, n=10 mice per group.
substance,measurement,value
T5460-1: citrulline form of LeuATI-5261 possessing a single R3→Citrulline substitution (EV[Cit]SKLEEWLAALRELAEELLARLKS),extent of whole aorta covered with fatty lesions,reduced atherosclerosis

# Reference: patent US9416162B2, “Peptides having reduced toxicity that stimulate cholesterol efflux” (The Regents of the University of California, priority 2013, dated 2016)
